Results: PubChem BioAssay (NCI)
≈ marks a conversion by molar mass, not a printed value.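 Interpolation was linear, between the two tested concentrations surrounding the appropriate level; five concentrations were tested over 48 hours in 96-well plates. Abbreviation: GI50, concentration required for 50% inhibition of growth. TGI: total growth inhibition.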

Columns and labels:
Test in all cases: NCI tumour cell line growth inhibition, 48 h
IGROV1 ovarian = test system: IGROV1 ovarian
HT29 colon = test system: HT29 colon
SNB-75 CNS = test system: SNB-75 CNS
UO-31 renal = test system: UO-31 renal
BT-549 breast = test system: BT-549 breast
HL-60(TB) leukemia = test system: HL-60(TB) leukemia
A498 renal = test system: A498 renal
MDA-MB-435 = test system: MDA-MB-435
NCI/ADR-RES ovarian = test system: NCI/ADR-RES ovarian
NCI-H460 lung = test system: NCI-H460 lung
SK-OV-3 ovarian = test system: SK-OV-3 ovarian
OVCAR-5 ovarian = test system: OVCAR-5 ovarian
OVCAR-4 ovarian = test system: OVCAR-4 ovarian
OVCAR-3 ovarian = test system: OVCAR-3 ovarian
K-562 leukemia = test system: K-562 leukemia
HCC-2998 colon = test system: HCC-2998 colon
NCI-H226 lung = test system: NCI-H226 lung
SK-MEL-2 melanoma = test system: SK-MEL-2 melanoma
DU-145 prostate = test system: DU-145 prostate
SF-539 CNS = test system: SF-539 CNS
MDA-MB-231 breast = test system: MDA-MB-231 breast
SK-MEL-28 melanoma = test system: SK-MEL-28 melanoma
COLO 205 colon = test system: COLO 205 colon
TK-10 renal = test system: TK-10 renal
HOP-92 NSCLC = test system: HOP-92 NSCLC
SF-268 CNS = test system: SF-268 CNS
ACHN renal = test system: ACHN renal
HCT-15 colon = test system: HCT-15 colon
MOLT-4 leukemia = test system: MOLT-4 leukemia
UACC-257 melanoma = test system: UACC-257 melanoma
U251 CNS = test system: U251 CNS
OVCAR-8 ovarian = test system: OVCAR-8 ovarian
SR leukemia = test system: SR leukemia
SK-MEL-5 melanoma = test system: SK-MEL-5 melanoma
UACC-62 melanoma = test system: UACC-62 melanoma
CAKI-1 renal = test system: CAKI-1 renal
NCI-H23 lung = test system: NCI-H23 lung
SN12C renal = test system: SN12C renal
PC-3 prostate = test system: PC-3 prostate
CCRF-CEM leukemia = test system: CCRF-CEM leukemia
NCI-H522 lung = test system: NCI-H522 lung
HOP-62 NSCLC = test system: HOP-62 NSCLC
MALME-3M melanoma = test system: MALME-3M melanoma
HS 578T breast = test system: HS 578T breast
SW-620 colon = test system: SW-620 colon
786-0 renal = test system: 786-0 renal
LOX IMVI melanoma = test system: LOX IMVI melanoma
EKVX NSCLC = test system: EKVX NSCLC
HCT-116 colon = test system: HCT-116 colon
KM12 colon = test system: KM12 colon
A549 NSCLC = test system: A549 NSCLC
MCF7 breast = test system: MCF7 breast
SNB-19 CNS = test system: SNB-19 CNS
SF-295 CNS = test system: SF-295 CNS
RPMI-8226 leukemia = test system: RPMI-8226 leukemia

## COc1ccccc1Cn1c2c(c3c(C(=O)NCCN(C)C)c(O)ccc31)C(=O)c1ccccc1C2=O
IGROV1 ovarian
  TGI: 3.23 µM
HT29 colon
  TGI: 3.47 µM
SNB-75 CNS
  TGI: 2.96 µM
UO-31 renal
  TGI: 3.33 µM
BT-549 breast
  TGI: 64.7 µM
HL-60(TB) leukemia
  TGI: 2.78 µM
A498 renal
  TGI: 41.2 µM
MDA-MB-435
  TGI: 3.24 µM
NCI/ADR-RES ovarian
  TGI: 4.93 µM
NCI-H460 lung
  TGI: 4.23 µM
SK-OV-3 ovarian
  TGI: 43.4 µM
OVCAR-5 ovarian
  TGI: 3.62 µM
OVCAR-4 ovarian
  TGI: 3.04 µM
OVCAR-3 ovarian
  TGI: 3.36 µM
K-562 leukemia
  TGI: 4 µM
HCC-2998 colon
  TGI: 3.02 µM
NCI-H226 lung
  TGI: 51.5 µM
SK-MEL-2 melanoma
  TGI: 3.46 µM
DU-145 prostate
  TGI: 3.31 µM
SF-539 CNS
  TGI: 3.09 µM
MDA-MB-231 breast
  TGI: 3.72 µM
SK-MEL-28 melanoma
  TGI: 3.15 µM
COLO 205 colon
  TGI: 3.19 µM

## O=CC1(C2(C=O)c3ccccc3-c3ccccc32)c2ccccc2-c2ccccc21
IGROV1 ovarian
  GI50: 0.323 µM
  TGI: 0.924 µM
HT29 colon
  GI50: 1.32 µM
  TGI: 2.51 µM
SNB-75 CNS
  GI50: 3.29 µM
  TGI: 8.08 µM
UO-31 renal
  GI50: 1.92 µM
  TGI: 4.32 µM
BT-549 breast
  GI50: 2.01 µM
  TGI: 4.84 µM
HL-60(TB) leukemia
  GI50: 1.75 µM
  TGI: 3.21 µM
TK-10 renal
  GI50: 2.63 µM
  TGI: 5.51 µM
A498 renal
  GI50: 2.33 µM
  TGI: 5.36 µM
HOP-92 NSCLC
  GI50: 1.58 µM
  TGI: 3.83 µM
MDA-MB-435
  GI50: 1.92 µM
  TGI: 4.51 µM
SF-268 CNS
  GI50: 2.37 µM
  TGI: 6.03 µM
ACHN renal
  GI50: 1.83 µM
  TGI: 4.19 µM
HCT-15 colon
  GI50: 1.68 µM
  TGI: 3.66 µM
MOLT-4 leukemia
  GI50: 1.38 µM
  TGI: 3.33 µM
NCI/ADR-RES ovarian
  GI50: 2.54 µM
  TGI: 6.99 µM
NCI-H460 lung
  GI50: 1.56 µM
  TGI: 2.85 µM
UACC-257 melanoma
  GI50: 2.16 µM
  TGI: 5.29 µM
OVCAR-5 ovarian
  GI50: 3.21 µM
  TGI: 6.34 µM
U251 CNS
  GI50: 2.23 µM
  TGI: 5.6 µM
OVCAR-4 ovarian
  GI50: 2.02 µM
  TGI: 5.26 µM
OVCAR-8 ovarian
  GI50: 2.2 µM
  TGI: 6.08 µM
OVCAR-3 ovarian
  GI50: 1.4 µM
  TGI: 3.39 µM
K-562 leukemia
  GI50: 2.3 µM
  TGI: > 22.6 µM
SR leukemia
  GI50: 1.65 µM
  TGI: 3.43 µM
SK-MEL-5 melanoma
  GI50: 1.95 µM
  TGI: 4.02 µM
UACC-62 melanoma
  GI50: 2.69 µM
  TGI: 6.25 µM
CAKI-1 renal
  GI50: 1.27 µM
  TGI: 3.62 µM
NCI-H23 lung
  GI50: 2.11 µM
  TGI: 4.82 µM
SN12C renal
  GI50: 2.34 µM
  TGI: 5.83 µM
PC-3 prostate
  GI50: 1.44 µM
  TGI: 4.65 µM
HCC-2998 colon
  GI50: > 100 µM
  TGI: > 100 µM
NCI-H226 lung
  GI50: 3.3 µM
  TGI: 7.24 µM
SK-MEL-2 melanoma
  GI50: 2 µM
  TGI: 4.82 µM
DU-145 prostate
  GI50: 2.29 µM
  TGI: 5.83 µM
CCRF-CEM leukemia
  GI50: 3.77 µM
  TGI: 11.6 µM
NCI-H522 lung
  GI50: 2.01 µM
  TGI: 4.38 µM
SF-539 CNS
  GI50: 2.01 µM
  TGI: 4.37 µM
HOP-62 NSCLC
  GI50: 6.17 µM
  TGI: 10.4 µM
MALME-3M melanoma
  GI50: 2.68 µM
  TGI: 5.94 µM
HS 578T breast
  GI50: 2.7 µM
  TGI: 7.49 µM
SW-620 colon
  GI50: 1.8 µM
  TGI: 3.53 µM
MDA-MB-231 breast
  GI50: 2.8 µM
  TGI: 6.98 µM
786-0 renal
  GI50: 2.16 µM
  TGI: 5.34 µM
LOX IMVI melanoma
  GI50: 1.89 µM
  TGI: 3.98 µM
EKVX NSCLC
  GI50: 1.96 µM
  TGI: 5.24 µM
SK-MEL-28 melanoma
  GI50: 1.72 µM
  TGI: 3.38 µM

## COC(=O)C(Cc1ccccc1)C(=O)C(CC(=O)OC(C)(C)C)NC(=O)OC(C)(C)C (stereo not given)
UO-31 renal
  GI50: 24.7 µg/mL
  TGI: 66.8 µg/mL
HCT-15 colon
  GI50: 28.2 µg/mL
HCT-116 colon
  GI50: 26.5 µg/mL (≈ 60.8 µM)
  TGI: 87.9 µg/mL (≈ 202 µM)
KM12 colon
  GI50: 59.7 µg/mL (≈ 137 µM)
A549 NSCLC
  GI50: 26.2 µg/mL (≈ 60.1 µM)

## CC1=C(C)C(=O)OC([C@](C)(O)[C@]2(O)CC[C@@]3(O)[C@@H]4C[C@H]5O[C@]56CC=CC(=O)[C@]6(C)[C@H]4CC[C@]23COC(=O)c2ccc(C)o2)C1 (stereo not given in full)
MCF7 breast
  GI50: > 100 µM
  TGI: > 100 µM
SNB-19 CNS
  TGI: > 24.7 µM
MOLT-4 leukemia
  TGI: > 22.4 µM
NCI/ADR-RES ovarian
  TGI: > 79.7 µM
UACC-257 melanoma
  TGI: > 20.9 µM
OVCAR-4 ovarian
  TGI: > 34.1 µM
K-562 leukemia
  TGI: > 43.5 µM
SR leukemia
  TGI: > 100 µM
SF-295 CNS
  TGI: > 32.6 µM
NCI-H226 lung
  TGI: > 33 µM
CCRF-CEM leukemia
  TGI: > 35.4 µM
RPMI-8226 leukemia
  TGI: > 33.2 µM
HOP-62 NSCLC
  TGI: > 21 µM
MALME-3M melanoma
  TGI: > 31.8 µM
HS 578T breast
  TGI: > 51.6 µM
MDA-MB-231 breast
  TGI: > 24.4 µM
A549 NSCLC
  TGI: > 32.4 µM
